Measured values as given in patent US12630530B2, “FGFR inhibitor compound and use thereof” (HENAN MEDINNO PHARMACEUTICAL TECHNOLOGY CO., LTD., priority 2020, dated 2026).

Key:
Format in all cases: biochemical
FGFR3 K650E = FGFR3 K650E (Homo sapiens, UniProt P22607, K650E); test: Assay I: inhibitory activity against FGFR mutants (HTRF KinEASE-TK); conditions: Table 1; ATP working concentration 50 μM, substrate TK 1 μM
Protocol: (§1) Assay I: Determination of Inhibitory Activity Against FGFR Mutants
(§2) 1×Kinase reaction buffer was formulated with 1×volume of 5× kinase reaction buffer and 4×volume of water; 5 mM MgCl2; and 1 mM DTT.
(§3) 2.3 Screening of Compounds: • 1. […] Adding 1 μl of the compound diluted in buffer to each well, sealing the plate with a sealing membrane and centrifuging the plate at 1000 g for 30 seconds and leaving it at room temperature for 10 minutes. • 6. Formulating 2.5×TK-substrate-biotin and ATP mixture with 1× enzyme reaction buffer and adding 2 μl of K-substrate-biotin/ATP mixture to the reaction plate. • 7. Sealing the plate with a sealing membrane and centrifuging the plate at 1000 g for 30 seconds and allowing it to react at room temperature for 50 minutes. • 8. […] 3. Data Analysis
(§4) 3.3 Calculation of IC50 and plotting of inhibition curves for the compounds.
(§5) The IC50 (half inhibition concentration) of a compound was obtained using the following non-linear fitting equation, wherein data analysis was performed using Graphpad 6.0 software.
(§6) Data were exported from Envision and analyzed manually. The ratios were converted to inhibition rates and IC50 was calculated by Prism GraphPad 6.0 from the inhibition rates. IC50 was calculated again by the ratios to verify accuracy of the results.

FGFR2 V564F = target: T1, FGFR2 V564F (Homo sapiens, UniProt P21802, V564F); test: as above; conditions: Table 1; ATP working concentration 10 μM, substrate TK 1 μM
T1 construct: purchased Signalchem F05-12FG
T1 sequence (P21802 22-821 V564F): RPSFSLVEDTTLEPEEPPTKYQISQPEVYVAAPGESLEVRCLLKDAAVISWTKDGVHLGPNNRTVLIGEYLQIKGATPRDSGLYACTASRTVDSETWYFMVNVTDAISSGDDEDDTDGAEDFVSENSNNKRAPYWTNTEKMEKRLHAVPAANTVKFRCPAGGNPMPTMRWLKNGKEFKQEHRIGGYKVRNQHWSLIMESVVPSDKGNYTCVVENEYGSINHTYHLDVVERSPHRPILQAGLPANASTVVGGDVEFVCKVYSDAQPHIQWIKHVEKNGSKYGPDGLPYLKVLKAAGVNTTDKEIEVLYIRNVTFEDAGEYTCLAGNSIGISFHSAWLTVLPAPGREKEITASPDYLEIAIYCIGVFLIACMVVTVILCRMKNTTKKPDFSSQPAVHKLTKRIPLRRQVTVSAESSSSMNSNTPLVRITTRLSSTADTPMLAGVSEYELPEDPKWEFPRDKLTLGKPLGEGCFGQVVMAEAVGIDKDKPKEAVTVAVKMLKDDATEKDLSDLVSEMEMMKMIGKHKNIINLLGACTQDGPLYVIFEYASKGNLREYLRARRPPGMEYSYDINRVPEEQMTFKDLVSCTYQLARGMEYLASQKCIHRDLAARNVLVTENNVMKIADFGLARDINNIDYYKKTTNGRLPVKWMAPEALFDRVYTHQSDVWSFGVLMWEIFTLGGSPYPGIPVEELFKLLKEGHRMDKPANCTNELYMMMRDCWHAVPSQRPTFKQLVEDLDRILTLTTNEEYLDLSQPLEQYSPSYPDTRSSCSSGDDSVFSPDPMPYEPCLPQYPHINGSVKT
Protocol: as §1, §2, §3, §4, §5, §6

FGFR1 V561M = target: T2, FGFR1 V561M (Homo sapiens, UniProt P11362, V561M); test: as above; conditions: Table 1; ATP working concentration 5 μM, substrate TK 1 μM
T2 construct: purchased Signalchem F04-13G
T2 sequence (P11362 22-822 V561M): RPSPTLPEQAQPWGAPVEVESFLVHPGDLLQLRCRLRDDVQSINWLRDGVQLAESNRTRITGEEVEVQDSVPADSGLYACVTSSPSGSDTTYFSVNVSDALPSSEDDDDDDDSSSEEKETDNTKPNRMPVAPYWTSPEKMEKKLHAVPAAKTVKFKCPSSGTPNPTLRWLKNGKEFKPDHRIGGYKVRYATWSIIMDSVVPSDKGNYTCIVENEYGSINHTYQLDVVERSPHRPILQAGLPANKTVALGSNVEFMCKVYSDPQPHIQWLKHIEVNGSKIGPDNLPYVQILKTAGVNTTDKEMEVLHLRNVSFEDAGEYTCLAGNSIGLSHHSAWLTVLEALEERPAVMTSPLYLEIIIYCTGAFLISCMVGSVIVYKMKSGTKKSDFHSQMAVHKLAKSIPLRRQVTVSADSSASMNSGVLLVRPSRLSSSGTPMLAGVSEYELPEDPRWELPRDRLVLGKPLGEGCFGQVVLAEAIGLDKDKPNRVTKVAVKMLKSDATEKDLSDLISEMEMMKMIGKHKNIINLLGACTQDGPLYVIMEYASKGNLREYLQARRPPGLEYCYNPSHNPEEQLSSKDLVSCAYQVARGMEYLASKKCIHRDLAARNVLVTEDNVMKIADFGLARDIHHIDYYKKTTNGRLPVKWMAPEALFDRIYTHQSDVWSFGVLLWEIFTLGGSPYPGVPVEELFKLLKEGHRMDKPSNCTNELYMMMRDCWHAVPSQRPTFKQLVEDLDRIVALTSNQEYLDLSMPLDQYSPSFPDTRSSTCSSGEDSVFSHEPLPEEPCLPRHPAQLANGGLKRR
Protocol: as §1, §2, §3, §4, §5, §6

FGFR3 V555M = target: T3, FGFR3 V555M (Homo sapiens, UniProt P22607, V555M); test: as above; conditions: Table 1; ATP working concentration 20 μM, substrate TK 1 μM
T3 construct: purchased Signalchem F06-12GG
T3 sequence (P22607 23-806 V555M): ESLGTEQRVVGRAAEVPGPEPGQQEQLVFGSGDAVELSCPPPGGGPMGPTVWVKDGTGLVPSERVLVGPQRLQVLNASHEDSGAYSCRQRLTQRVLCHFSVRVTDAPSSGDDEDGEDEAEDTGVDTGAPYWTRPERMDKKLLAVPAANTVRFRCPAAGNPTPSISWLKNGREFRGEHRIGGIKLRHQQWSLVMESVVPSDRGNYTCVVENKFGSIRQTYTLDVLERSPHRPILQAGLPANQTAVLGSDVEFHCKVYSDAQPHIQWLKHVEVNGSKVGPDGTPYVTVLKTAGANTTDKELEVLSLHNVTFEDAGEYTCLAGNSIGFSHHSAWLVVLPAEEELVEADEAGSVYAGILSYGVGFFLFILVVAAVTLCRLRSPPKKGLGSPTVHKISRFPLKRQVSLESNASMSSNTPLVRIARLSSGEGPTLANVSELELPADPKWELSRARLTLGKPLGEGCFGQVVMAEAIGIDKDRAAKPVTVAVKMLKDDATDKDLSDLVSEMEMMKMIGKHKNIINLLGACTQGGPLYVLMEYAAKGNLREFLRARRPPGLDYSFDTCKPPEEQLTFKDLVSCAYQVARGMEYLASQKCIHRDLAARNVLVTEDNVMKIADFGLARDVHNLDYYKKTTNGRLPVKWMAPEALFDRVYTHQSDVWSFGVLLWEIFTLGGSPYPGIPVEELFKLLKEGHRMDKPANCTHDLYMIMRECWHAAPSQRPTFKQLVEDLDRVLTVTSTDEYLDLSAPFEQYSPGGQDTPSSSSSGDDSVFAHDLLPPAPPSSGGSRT
Protocol: as §1, §2
2.3 Screening of Compounds: • 1. Diluting a compound 4-fold in a dilution plate with DMSO, with a starting compound concentration of 2 mM (4 mM for Nentedanib). • 2. Diluting the compound 40-fold into 1× kinase reaction buffer and shaking it on a shaker for 20 minutes. • 3. […] Adding 1 μl of the compound diluted in buffer to each well, sealing the plate with a sealing membrane and centrifuging the plate at 1000 g for 30 seconds and leaving it at room temperature for 10 minutes. • 6. Formulating 2.5×TK-substrate-biotin and ATP mixture with 1× enzyme reaction buffer and adding 2 μl of K-substrate-biotin/ATP mixture to the reaction plate. • 7. Sealing the plate with a sealing membrane and centrifuging the plate at 1000 g for 30 seconds and allowing it to react at room temperature for 50 minutes. • 8. Formulating 4×Sa-XL 665 (250 nM) with HTRF assay buffer. • 9. Adding 5 μl Sa-XL 665 and 5 μl TK-Antibody-Cryptate to each well, centrifuging it at 1000 g for 30 seconds, and allowing it to react for 1 hour at room temperature. • 10. Reading fluorescence signals at 615 nm (Cryptate) and 665 nm (XL665) with Biotek. 3. Data Analysis
3.1 Calculation of the ratio for each well: the ratio was calculated as 665/615 nm.
as §4, §5, §6

VEGFR2 = target: T4, VEGFR2 (Homo sapiens, UniProt P35968); test: Assay I: kinase inhibition (HTRF KinEASE-TK), VEGFR2; conditions: Table 1; ATP working concentration 5 μM, substrate TK 1 μM
T4 construct: purchased Carna 08-191
T4 sequence (P35968 20-1356): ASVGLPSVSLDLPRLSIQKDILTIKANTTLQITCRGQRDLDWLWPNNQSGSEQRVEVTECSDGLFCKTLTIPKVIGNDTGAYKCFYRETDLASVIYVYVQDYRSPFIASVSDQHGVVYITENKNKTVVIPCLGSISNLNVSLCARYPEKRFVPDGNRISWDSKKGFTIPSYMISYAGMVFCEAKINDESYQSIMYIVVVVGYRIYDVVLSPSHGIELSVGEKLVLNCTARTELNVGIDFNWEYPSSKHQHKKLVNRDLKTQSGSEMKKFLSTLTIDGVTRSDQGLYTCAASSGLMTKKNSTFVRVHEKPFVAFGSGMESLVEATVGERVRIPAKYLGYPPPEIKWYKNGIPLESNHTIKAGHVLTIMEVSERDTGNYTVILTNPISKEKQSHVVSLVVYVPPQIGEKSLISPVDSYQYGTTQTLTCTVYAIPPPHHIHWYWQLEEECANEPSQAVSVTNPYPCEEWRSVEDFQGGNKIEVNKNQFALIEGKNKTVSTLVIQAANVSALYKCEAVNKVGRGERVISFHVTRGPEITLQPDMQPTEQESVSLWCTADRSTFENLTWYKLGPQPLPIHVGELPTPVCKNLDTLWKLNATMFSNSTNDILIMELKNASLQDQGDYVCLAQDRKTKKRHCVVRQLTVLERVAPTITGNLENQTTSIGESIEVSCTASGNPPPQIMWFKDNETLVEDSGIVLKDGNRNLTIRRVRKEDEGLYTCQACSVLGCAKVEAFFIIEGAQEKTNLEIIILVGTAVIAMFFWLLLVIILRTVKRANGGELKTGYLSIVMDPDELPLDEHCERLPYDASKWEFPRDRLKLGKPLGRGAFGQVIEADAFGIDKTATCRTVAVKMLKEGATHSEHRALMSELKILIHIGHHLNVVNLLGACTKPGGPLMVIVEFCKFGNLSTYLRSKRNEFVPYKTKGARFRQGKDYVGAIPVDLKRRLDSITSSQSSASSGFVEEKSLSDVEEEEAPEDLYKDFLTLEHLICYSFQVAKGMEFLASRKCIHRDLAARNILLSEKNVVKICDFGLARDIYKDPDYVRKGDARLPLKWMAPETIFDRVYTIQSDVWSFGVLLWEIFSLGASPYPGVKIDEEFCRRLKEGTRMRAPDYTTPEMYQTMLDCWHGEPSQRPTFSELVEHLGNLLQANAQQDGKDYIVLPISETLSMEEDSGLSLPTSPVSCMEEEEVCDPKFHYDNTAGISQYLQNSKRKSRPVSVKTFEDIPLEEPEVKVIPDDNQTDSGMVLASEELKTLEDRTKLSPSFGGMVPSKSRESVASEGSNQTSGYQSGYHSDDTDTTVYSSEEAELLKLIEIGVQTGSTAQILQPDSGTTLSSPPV

FGFR1 = target: T5, FGFR1 (Homo sapiens, UniProt P11362); test: Assay II: inhibitory activity against wild-type FGFR (HTRF KinEASE-TK); conditions: Table 2, ATP working concentration 50 μM, substrate TK 1 μM
T5 construct: purchased Carna 08-133
T5 sequence (P11362 22-822): as the sequence (P11362 22-822 V561M) above, with M540V counted along it
Protocol: (§7) Assay II: Determination of inhibitory activity against wild-type FGFR
as §2
(§8) 3. Formulating 2×FGFR1/FGFR2/FGFR3 with 1× of enzyme reaction buffer.
(§9) 4. Adding 2 μl FGFR1/FGFR2/FGFR3 kinase (formulated in step 3) to each well of the reaction plate.
(§10) 5. Adding 1 μl of the compound diluted in buffer to each well, sealing the plate with a sealing membrane and centrifuging the plate at 1000 g for 30 seconds and leaving it at room temperature for 10 minutes.
(§11) 6. Formulating 2.5×TK-substrate-biotin and ATP mixture with 1× enzyme reaction buffer and adding 2 μl of K-substrate-biotin/ATP mixture to the reaction plate.
(§12) 7. Sealing the plate with a sealing membrane and centrifuging the plate at 1000 g for 30 seconds and allowing it to react at room temperature for 50 minutes.
as §4, §5, §6

FGFR2 = target: T6, FGFR2 (Homo sapiens, UniProt P21802); test: as above; conditions: Table 2, ATP working concentration 50 μM, substrate TK 1 μM
T6 construct: purchased Carna 08-134
T6 sequence (P21802 22-821): as the sequence (P21802 22-821 V564F) above, with F543V counted along it
Protocol: as §7, §2, §8, §9, §10, §11, §12, §4, §5, §6

FGFR3 = target: T7, FGFR3 (Homo sapiens, UniProt P22607); test: as above; conditions: Table 2, ATP working concentration 50 μM, substrate TK 1 μM
T7 construct: purchased Carna 08-135
T7 sequence (P22607 23-806): as the sequence (P22607 23-806 V555M) above, with M533V counted along it
Protocol: as §7, §2, §8, §9, §10, §11, §12, §4, §5, §6

Chain of FGFR3 K650E (P22607 23-806 K650E): as the sequence (P22607 23-806 V555M) above, with M533V, K628E counted along it

| Compound | IC50 (FGFR3 K650E) [nM] | IC50 (FGFR2 V564F) [nM] | IC50 (FGFR1 V561M) [nM] | IC50 (FGFR3 V555M) [nM] | IC50 (VEGFR2) [nM] | IC50 (FGFR1) [nM] | IC50 (FGFR2) [nM] | IC50 (FGFR3) [nM] |
| --- | --- | --- | --- | --- | --- | --- | --- | --- |
| CC(Oc1ccc2[nH]nc(C(=O)Nc3ccc(N4C[C@@H](C)N[C@@H](C)C4)cc3)c2c1)c1c(Cl)cncc1Cl (stereo partly drawn) [Compound 1, 5-(1-(3,5-dichloropyridin-4-yl)ethoxy)-N-(4-((3S,5R)-3,5-dimethylpiperazin-1-yl)phenyl)-1H-indazole-3-carboxamide] | 26.8 | 2.3 | 6.3 | 8.6 |  |  |  |  |
| CC(Oc1ccc2[nH]nc(C(=O)Nc3cnn(CCO)c3)c2c1)c1c(Cl)cncc1Cl (centres unmarked) [Compound 2, 5-(1-(3,5-dichloropyridin-4-yl)ethoxy)-N-(1-(2-hydroxyethyl)-1H-pyrazol-4-yl)-1H-indazole-3-carboxamide] | 30 | 2 | 7 | 2.2 | 176 |  |  |  |
| CC(Oc1ccc2[nH]nc(C(=O)Nc3cnn(C(C)CC#N)c3)c2c1)c1c(Cl)cncc1Cl (centres unmarked) [Compound 5, N-(1-(1-cyanopropan-2-yl)-1H-pyrazol-4-yl)-5-(1-(3,5-dichloropyridin-4-yl)ethoxy)-1H-indazole-3-carboxamide] | 33.4 | 2.4 | 7.2 | 4.6 |  |  |  |  |
| CC(Oc1ccc2[nH]nc(C(=O)Nc3cnn(C4CCN(C)CC4)c3)c2c1)c1c(Cl)cncc1Cl (centres unmarked) [Compound 14, 5-(1-(3,5-dichloropyridin-4-yl)ethoxy)-N-(1-(1-methylpiperidin-4-yl)-1H-pyrazol-4-yl)-1H-indazole-3-carboxamide] |  | 0.14 | 0.47 | 0.27 | 24.7 | 11.1 | 9.5 | 19.2 |
